Where no end group is shown, it is not given here. The star is where a group is joined. FITC = O=C1OC2(c3ccc(O)cc3Oc3cc(O)ccc32)c2ccc(NC(=S)*)cc21
Tests used:
[1] = molecular target: BAX (Homo sapiens, UniProt Q07812); test: STD NMR; type: binding
[2] = molecular target: T1, BCL-2-associated X protein (BAX), recombinant, full-length, monomeric (human, UniProt Q07812 1-192); test: fluorescence polarisation
[3] = molecular target: T1, BCL-2-associated X protein (BAX), …; test: competition STD NMR

Sequence of BAX (Q07812 whole entry): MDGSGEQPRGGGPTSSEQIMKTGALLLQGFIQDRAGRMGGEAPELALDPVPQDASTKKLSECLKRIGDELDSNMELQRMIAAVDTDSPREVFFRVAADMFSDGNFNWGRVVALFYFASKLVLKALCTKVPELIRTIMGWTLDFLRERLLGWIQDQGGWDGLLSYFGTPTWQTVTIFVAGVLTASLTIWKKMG
T1 sequence (Q07812 whole entry): as above

Molecule	STD NMR; liposomal release sensitization [1]	other results
Oc1ccc(Cc2ccccc2)cc1 [compound 3, 4-benzylphenol]	all retain BAX-binding activity as assessed by STD NMR, and demonstrate BAX-sensitization activity	
Nc1ccc(Oc2ccccc2)cc1 [compound 4, 4-phenoxyaniline]	all retain BAX-binding activity as assessed by STD NMR, and demonstrate BAX-sensitization activity	
Oc1cccc(Oc2ccccc2)c1 [compound 2, 3-phenoxyphenol]	all retain BAX-binding activity as assessed by STD NMR, and demonstrate BAX-sensitization activity	
{FITC}-EALKKALRRHRFLWQRRQRA [FITC-vMIA peptide (aa 131-150)]		binding result [2]: binds
EALKKALRRHRFLWQRRQRA [vMIA peptide (aa 131-150), as used in competition STD NMR]		binding result [3]: binds

Source: paper PMC5675120 (Nature chemical biology, 2017)
